This passage reports inhibition and Activity results from ChEMBL document CHEMBL5338773, “First-in-Class Selective Inhibitors of the Lysine Acetyltransferase KAT8” (J Med Chem, 2023).

Active and inactive are the calls of the source. The rule behind the calls is not given here.

Series [1] has as its target Histone acetyltransferase KAT2B (Homo sapiens) (UniProt Q92831). The series can be described thus: Inhibition of recombinant human KAT2B (492 to 658 residues) using histone H3 peptide and [3H]-acetyl-coA as substrates at 200 uM incubated for 1 hrs by liquid scintillation counter analysis.
Series [2] addresses Histone deacetylase 2 (Homo sapiens) (UniProt Q92769). The series can be described thus: Inhibition of human recombinant KDAC2 using Boc-Lys-(Ac)-AMC as substrate at 50 to 100 uM incubated for 45 mins by fluorescence microplate reader analysis. The conditions noted are these: dose 50-100 µM.
Series [3] has as its target Histone deacetylase 3 (Homo sapiens) (UniProt O15379). Kind of series: Inhibition of human recombinant KDAC3 using Boc-Lys-(Ac)-AMC as substrate at 50 to 100 uM incubated for 45 mins by fluorescence microplate reader analysis. The conditions noted are these: dose 50-100 µM.
In series [4] the target is T1, Protein deacetylase HDAC6 (Homo sapiens) (UniProt Q9UBN7).
T1 sequence (whole entry): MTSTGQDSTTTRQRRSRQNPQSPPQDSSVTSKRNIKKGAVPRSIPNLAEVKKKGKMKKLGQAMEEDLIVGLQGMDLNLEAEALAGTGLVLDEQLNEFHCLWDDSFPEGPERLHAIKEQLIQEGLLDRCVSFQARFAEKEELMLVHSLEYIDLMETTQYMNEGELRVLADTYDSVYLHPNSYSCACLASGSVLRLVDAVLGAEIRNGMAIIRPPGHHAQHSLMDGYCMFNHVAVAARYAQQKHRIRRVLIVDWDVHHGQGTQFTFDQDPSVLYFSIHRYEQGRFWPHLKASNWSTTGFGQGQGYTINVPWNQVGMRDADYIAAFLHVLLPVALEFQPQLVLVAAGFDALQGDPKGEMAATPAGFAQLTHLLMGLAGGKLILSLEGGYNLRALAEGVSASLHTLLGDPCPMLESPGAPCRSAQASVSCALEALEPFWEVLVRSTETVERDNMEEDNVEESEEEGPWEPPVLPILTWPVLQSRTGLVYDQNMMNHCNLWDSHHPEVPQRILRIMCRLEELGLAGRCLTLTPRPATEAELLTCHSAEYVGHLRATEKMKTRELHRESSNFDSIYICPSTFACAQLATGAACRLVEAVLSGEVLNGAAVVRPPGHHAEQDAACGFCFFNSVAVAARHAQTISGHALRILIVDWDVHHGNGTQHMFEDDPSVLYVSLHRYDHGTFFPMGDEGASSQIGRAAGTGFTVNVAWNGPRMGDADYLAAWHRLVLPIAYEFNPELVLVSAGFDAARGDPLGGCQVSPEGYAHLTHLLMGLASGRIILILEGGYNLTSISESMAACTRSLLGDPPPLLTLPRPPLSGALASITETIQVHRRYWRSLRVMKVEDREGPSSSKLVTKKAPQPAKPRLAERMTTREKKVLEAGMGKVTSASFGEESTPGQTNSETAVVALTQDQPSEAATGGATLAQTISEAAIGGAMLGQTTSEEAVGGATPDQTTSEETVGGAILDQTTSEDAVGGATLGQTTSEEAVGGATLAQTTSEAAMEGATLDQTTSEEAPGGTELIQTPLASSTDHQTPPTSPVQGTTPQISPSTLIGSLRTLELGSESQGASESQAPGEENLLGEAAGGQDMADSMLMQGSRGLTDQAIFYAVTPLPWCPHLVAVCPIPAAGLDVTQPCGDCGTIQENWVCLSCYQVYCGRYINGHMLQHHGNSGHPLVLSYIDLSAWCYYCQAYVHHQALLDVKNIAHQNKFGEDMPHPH
The series can be described thus: Inhibition of human recombinant KDAC6 using Boc-Lys-(Ac)-AMC as substrate at 50 to 100 uM incubated for 45 mins by fluorescence microplate reader analysis. The conditions noted are these: dose 50-100 µM.

The target of series [5] is T2, Histone acetyltransferase KAT8 (Homo sapiens) (UniProt Q9H7Z6).
T2 sequence (whole entry): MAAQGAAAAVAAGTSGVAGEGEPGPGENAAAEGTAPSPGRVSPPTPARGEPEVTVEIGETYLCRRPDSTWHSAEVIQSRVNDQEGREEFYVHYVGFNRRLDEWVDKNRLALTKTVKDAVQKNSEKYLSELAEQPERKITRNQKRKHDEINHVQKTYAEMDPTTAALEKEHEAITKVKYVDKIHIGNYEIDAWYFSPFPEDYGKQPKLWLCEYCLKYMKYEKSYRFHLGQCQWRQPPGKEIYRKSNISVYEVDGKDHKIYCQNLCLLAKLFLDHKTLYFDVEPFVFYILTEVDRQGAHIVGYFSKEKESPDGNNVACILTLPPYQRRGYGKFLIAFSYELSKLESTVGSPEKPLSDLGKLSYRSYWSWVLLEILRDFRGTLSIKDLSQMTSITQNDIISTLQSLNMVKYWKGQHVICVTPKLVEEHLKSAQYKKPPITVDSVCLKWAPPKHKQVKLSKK
The series can be described thus: Binding affinity to KAT8 in human HT-29 cells at 59 degreeC at 100 nM incubated for 4 hrs by […] analysis. It counts as cell-based.

Series [6] deals with T2, Histone acetyltransferase KAT8 (Homo sapiens). Kind of series: Inhibition of human KAT8 in human HT-29 cells assessed as change in histone H3K27 acetylation level by measuring fluorescence intensity in nucleus at 50 uM incubated for 24 hrs by DAPI staining based immunofluorescence analysis. The series is classed as cell-based.
Series [7] has as its system A549. The series can be described thus: Antiproliferative activity against human A549 cells assessed as cell proliferation inhibition at 10 to 100 uM incubated for 72 hrs by MTT assay. The series is classed as functional, cell-based. The following applies: dose 10-100 µM.
In series [8] the test system is U-251. Kind of series: Antiproliferative activity against human U-251 cells assessed as cell proliferation inhibition at 10 to 100 uM incubated for 72 hrs by MTT assay. The series is classed as functional, cell-based. The following applies: dose 10-100 µM.
The subject of series [9] is AHH-1. Kind of series: Cytotoxicity against human AHH-1 cells assessed as inhibition of cell viability at 25 to 200 uM incubated for 72 hrs by MTT assay. The series is classed as toxicity, cell-based. The conditions noted are these: ahh-1, 72 h, dose 25-200 µM.
Series [10] can be described thus: Cytotoxicity against human Intestinal epithelial cells assessed as inhibition of cell viability at 25 to 200 uM incubated for 72 hrs by MTT assay. The following applies: dose 25-200 µM. The series is classed as toxicity, cell-based.
Series [11] is described as follows: Cytotoxicity against human primary lung fibroblast assessed as inhibition of cell viability at 25 to 200 uM incubated for 72 hrs by MTT assay. The series is classed as toxicity, cell-based. The following applies: dose 25-200 µM.
Series [12] has as its system HT-29. Kind of series: Induction of cell cycle arrest in human HT-29 cells assessed as increase in number of cells at sub-G1 phase with DNA hypodiploid at 50 uM incubated for 72 hrs by PI-staining based flow cytometry (Rvb=2%). It counts as functional.
The test system of series [13] is HCT-116. The series can be described thus: Induction of cell cycle arrest in human HCT-116 cells assessed as increase in number of cells at sub-G1 phase with DNA hypodiploid at 100 uM incubated for 72 hrs by PI-staining based flow cytometry (Rvb=2%). It counts as functional.
The test system of series [14] is HeLa. The series can be described thus: Induction of cell cycle arrest in human HeLa cells assessed as increase in number of cells at sub-G1 phase with DNA hypodiploid at 50 uM incubated for 72 hrs by PI-staining based flow cytometry (Rvb=2%). It counts as functional.
Series [15] has as its system HT-29. The series can be described thus: Effect on cell cycle progression in human HT-29 cells assessed as changes in cell cycle stages at 50 to 100 uM incubated for 72 hrs by PI-staining based flow cytometry. The conditions noted are these: dose 50-100 µM. It counts as functional.
The test system of series [16] is HCT-116. The series can be described thus: Downregulation of UCP2 mRNA expression in human HCT-116 cells at 100 uM incubated for 48 hrs by qRT-PCR analysis. The series is classed as functional, cell-based.

Sequence of Histone deacetylase 3 (Homo sapiens) (O15379 whole entry): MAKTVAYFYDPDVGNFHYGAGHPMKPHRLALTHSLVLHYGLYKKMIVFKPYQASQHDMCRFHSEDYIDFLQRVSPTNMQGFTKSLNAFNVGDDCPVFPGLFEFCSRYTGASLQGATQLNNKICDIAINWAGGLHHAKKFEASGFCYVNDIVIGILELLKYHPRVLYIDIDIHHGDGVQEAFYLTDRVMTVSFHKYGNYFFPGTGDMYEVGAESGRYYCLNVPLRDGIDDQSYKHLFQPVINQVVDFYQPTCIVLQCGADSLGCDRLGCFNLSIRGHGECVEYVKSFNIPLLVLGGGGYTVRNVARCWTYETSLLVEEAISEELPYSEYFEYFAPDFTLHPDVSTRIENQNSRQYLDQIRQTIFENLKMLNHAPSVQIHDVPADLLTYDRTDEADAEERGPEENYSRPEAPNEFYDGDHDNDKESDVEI
Sequence of Histone deacetylase 2 (Homo sapiens) (Q92769 whole entry): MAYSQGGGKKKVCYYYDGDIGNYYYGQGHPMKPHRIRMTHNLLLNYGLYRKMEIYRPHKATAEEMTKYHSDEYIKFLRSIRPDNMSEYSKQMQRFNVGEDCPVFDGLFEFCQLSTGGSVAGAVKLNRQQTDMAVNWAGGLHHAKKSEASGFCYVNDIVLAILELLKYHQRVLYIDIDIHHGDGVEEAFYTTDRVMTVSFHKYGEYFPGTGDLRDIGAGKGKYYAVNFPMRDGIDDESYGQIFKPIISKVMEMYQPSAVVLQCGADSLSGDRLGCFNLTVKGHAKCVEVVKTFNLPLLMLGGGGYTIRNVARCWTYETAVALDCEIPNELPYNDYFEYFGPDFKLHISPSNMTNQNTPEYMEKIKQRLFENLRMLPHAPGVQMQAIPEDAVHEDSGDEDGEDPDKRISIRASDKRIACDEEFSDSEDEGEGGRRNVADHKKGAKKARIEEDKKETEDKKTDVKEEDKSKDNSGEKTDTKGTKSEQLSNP
Sequence of Histone acetyltransferase KAT2B (Homo sapiens) (Q92831 whole entry, looked up, the tested form may be a part): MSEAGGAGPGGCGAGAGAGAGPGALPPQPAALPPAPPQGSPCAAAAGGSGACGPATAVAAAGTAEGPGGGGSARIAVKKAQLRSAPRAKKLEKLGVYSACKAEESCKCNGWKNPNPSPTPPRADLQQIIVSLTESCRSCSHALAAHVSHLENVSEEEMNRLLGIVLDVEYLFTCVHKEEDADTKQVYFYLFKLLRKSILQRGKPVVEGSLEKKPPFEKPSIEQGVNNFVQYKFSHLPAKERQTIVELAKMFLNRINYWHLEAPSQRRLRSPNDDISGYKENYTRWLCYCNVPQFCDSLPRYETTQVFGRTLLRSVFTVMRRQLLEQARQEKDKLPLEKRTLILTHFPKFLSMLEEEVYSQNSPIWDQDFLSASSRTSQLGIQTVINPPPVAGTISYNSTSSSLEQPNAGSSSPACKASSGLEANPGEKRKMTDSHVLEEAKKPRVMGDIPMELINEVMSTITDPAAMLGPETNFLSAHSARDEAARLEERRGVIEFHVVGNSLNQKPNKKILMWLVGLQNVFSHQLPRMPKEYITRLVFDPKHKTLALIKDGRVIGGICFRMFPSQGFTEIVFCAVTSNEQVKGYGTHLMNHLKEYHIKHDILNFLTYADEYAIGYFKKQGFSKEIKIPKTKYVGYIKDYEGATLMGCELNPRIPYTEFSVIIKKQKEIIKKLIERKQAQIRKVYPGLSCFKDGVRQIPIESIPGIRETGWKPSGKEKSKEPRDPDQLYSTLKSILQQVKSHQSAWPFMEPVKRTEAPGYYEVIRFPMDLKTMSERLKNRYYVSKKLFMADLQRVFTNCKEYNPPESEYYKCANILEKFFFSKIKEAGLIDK

For the compound `CC1=NN(c2ccc(C(=O)O)cc2)C(=O)/C1=C\c1ccc[nH]1`, the inhibition entry in series [1], in [2], in [3], in [4] and in series [6] was “inactive” in each case. Also, the result in series [5] and in series [16] was Active. The Activity entry was “Dose-Dependent Effect” in series [7]; “Non-Toxic” in series [9]; “Non-Toxic” in series [10]; “Non-Toxic” in series [11]; 7% in series [12]; 6% in [13]. The Activity in series [14] stood at 2%. The result in [8] and in [15] was inactive.

On to `O=C(O)c1ccc(N2N=C(c3ccccc3)/C(=C/c3ccc[nH]3)C2=O)cc1`, for which the inhibition entry in series [1], in [2], in series [3], in series [4] and in [6] was “inactive” in each case. Moreover, the outcome in [5] and in series [16] was Active. Moreover, the Activity entry in series [7] is “Dose-Dependent Effect”; in series [9], “Non-Toxic”; in series [10], “Non-Toxic”; in [11], “Non-Toxic”; in [12], 8%; in series [13], 13%. Moreover, in series [14], the Activity amounted to 2%. Also, the result in [8] and in series [15] was inactive.
